Key:
polyamine transporter [1] = assay: Putrescine uptake ([3H]putrescine) in ZR-75-1 cells; format: cell-based, human; settings: DESC up to 100 μM, MESC up to 200 μM
Protocol: (§1) J. Biol. […] Endocrinology 126: 3223-3231). […] Cell cultures were then washed twice with 1 ml PBS containing 5.7 mM sym-norspermidine. Cells were then lysed with 200-μl aliquot of 1 N NaOH and incubated for 30 minutes at 60° C. After neutralization with 200 μl of 1 N HCl, radioactivity was determined from a 250-μl of the cell lysate by scintillation counting. Uptake activity was expressed per amount of total cellular protein as determined by the method of Bradford (Bradford, M. M. 1976. Anal. Biochem. 72: 248-254). Non-specific binding of radioactive substrate was similarly determined in parallel for both cell lines after a 15 second-incubation with 400 μl of ice-cold uptake solution. […] Km, Ki and Vmax values were then estimated by Line-weaver-Burke analysis. For competitive inhibitors, Ki values were also estimated by measuring uptake activity in the presence of logarithmically increasing concentrations of antagonist, and using the Cheng-Prusoff equation (Cheng. Y. -C. and Prusoff, W. H. 1973. Biochem. Pharmacol. 22: 3099-3108) by iterative curve fitting for a sigmoidal curve. For mixed competitive/noncompetitive inhibition, two methods were used to calculate kinetic constants. […] C. 1976. Enzymes, 3rd Ed., Academic Press, San Diego, Calif.). […] C. 1976. Enzymes, 3rd Ed., Academic Press, San Diego, Calif.).

ZR-75-1 cells [2] = assay: Effect of inhibitors on cell proliferation (11 days, DNA content); format: cell-based, human
Protocol: Effect of Inhibitors on Cell Proliferation--For growth studies, ZR-75-1 cells were cultured in MEZR medium or in phenol red-free RPMI 1640 supplemented with 2 mM L-glutamine, 1 mM sodium pyruvate, 15 mM Hepes, antibiotics, 1 nM 17β-estradiol, 0.5 μg of bovine insulin per ml and 5% (v/v) charcoal-treated fetal bovine serum (SD medium), as indicated in the text. […] M. L. 1989. in The Physiology of Polyamines (Bachrach, U., and Helmer, Y. M. eds) Vol. I, pp. 203-229, CRC Press, Boca Raton). […] Endocrinology 126: 3223-3231). Medium was changed every other day in these experiments because of the slow reaction of the compound with an unknown component present in the IMEM and RPMI 1640 medium formulation.

[3] = Stability in buffered aqueous solution; format: physicochemical; settings: buffered at pH=7.0
polyamine transporter [4] = assay: Spermine uptake ([14C]spermine) in ZR-75-1 cells; format: cell-based, human
Protocol: as §1

ZR-75-1 cells [5] = assay: Intracellular accumulation of DESC and MESC and polyamine contents (HPLC); format: cell-based, human
Protocol: Polyamine Analysis--ZR-75-1 cells were plated in 100 mm culture dishes at 5×10^5 cells/dish in MEZR medium and grown for 5 days with medium changes every other day. Fresh MEZR medium containing the indicated concentration of transport antagonist was then added, plus or minus 200 μM cycloheximide (CHX), and cells were incubated for 1 or 6 hours. […] Cell pellets were resuspended in 300 μl of 10% (v/v) trichloroacetic acid or Tris-DTT buffer (50 mM Tris/HCl, 0.1 mM EDTA, 5 mM DTT, pH 7.5) and stored at -20° C. until further analysis. For chromatographic analysis, samples were first quickly thawed and incubated for 15 minutes at 37° C. Trichloroacetic acid was then added to DTT-containing samples to a final concentration of 10% (wt/v). Samples were dispersed for 2 minutes in a sonicating water bath, and pelleted in a microcentrifuge for 5 minutes. The trichloroacetic acid-insoluble pellet was solubilized in 300-500 μl of 1 N NaOH and used to determine protein content using bovine serum albumin (fraction V) as standard.
Since DESC was eluted as a late, broad peak in the HPLC system used, DTT was added to cell extracts to reduce DESC to MESC and decrease the detection threshold. ZR-75-1 cells were incubated for 1 or 6 hours in MEZR medium in the presence of 50 or 200 μM DESC or MESC prior to determination of polyamine contents. CHX was added at 200 μM where indicated. Other details are provided under "Materials and Methods". Values are the mean±SD of triplicate determinations from 2 independent experiments.

ZR-75-1 cells [6] = assay: Time course of intracellular [3H]spermidine accumulation with transport antagonists; format: cell-based; settings: Homo sapiens
Protocol: The time course of intracellular accumulation of spermidine in the presence of transport antagonists was determined by incubating ZR-75-1 cells in 24-well plates with DESC (50 or 200 μM) or MESC (200 μM) in dissolved in MEZR medium containing 5 μM [^3 H]spermidine in the presence or absence of cycloheximide (CHX, 200 μM), and harvesting at the indicated times for the determination of intracellular radioactive contents, as described above for polyamine uptake assays.

ZR-75-1 cells [7] = assay: Reversal of DFMO-induced growth inhibition by exogenous spermidine; format: cell-based, human
Protocol: Effect of Inhibitors on Cell Proliferation--For growth studies, ZR-75-1 cells were cultured in MEZR medium or in phenol red-free RPMI 1640 supplemented with 2 mM L-glutamine, 1 mM sodium pyruvate, 15 mM Hepes, antibiotics, 1 nM 17β-estradiol, 0.5 μg of bovine insulin per ml and 5% (v/v) charcoal-treated fetal bovine serum (SD medium), as indicated in the text. When polyamines or polyamine analogs were added to serum-containing media, 1 mM aminoguanidine was added to inhibit bovine serum amine oxidase (BSAO) activity (Morgan, D. M. L. 1989. in The Physiology of Polyamines (Bachrach, U., and Helmer, Y. M. eds) Vol. I, pp. 203-229, CRC Press, Boca Raton). The effect of the transport inhibitors on cell growth was measured by incubating ZR-75-1 cells for 11 days in medium supplemental with antagonist, polyamines and/or 1 mM DFMO as indicated, followed by colorimetric determination of DNA content with 3,5-diaminobenzaic acid (Simard, J., Dauvois, S., Haagensen, D. E., Levesque, C., Merand, Y. and Labrie, F. 1990. Endocrinology 126: 3223-3231). Medium was changed every other day in these experiments because of the slow reaction of the compound with an unknown component present in the IMEM and RPMI 1640 medium formulation.

[8] = DESC stability in biological media (HPLC, cell-free); format: physicochemical; settings: imem medium, 37° C., 5% CO2, cell-free, read-out: Fraction of compound decomposed
Protocol: DESC stability--DESC stability was tested by incubating the compound dissolved (at 50 μM) in PBS or in IMEM medium containing 10% (v/v) fetal bovine serum plus or minus 1 mM aminoguanidine in a humid 5% CO2 atmosphere at 37° C. and in the absence of cells. At indicated times, trichloroacetic acid was added to aliquots of this solution to a final concentration 10% (w/v) and the samples directly analyzed by HPLC as above.

[9] = secondary amino group of the spermine head; cited from earlier work
polyamine transporter [10] = assay: Spermidine uptake ([3H]spermidine) in CHO-K1 cells; format: cell-based, Chinese hamster; settings: MESC thioether derivatives, FIG. 5
[11] = 200 μM compound + 200 μM CHX, 1 h
[12] = 200 μM compound + 200 μM CHX, 6 h

SMILES	Influence of 1 mM aminoguanidine on the growth effect of the compound (ZR-75-1 cells [2])	Stability in aqueous solution [3]	DESC intracellular content (ZR-75-1 cells [5]; 50 μM compound, 1 h) [nmol/mg protein]	MESC intracellular content (ZR-75-1 cells [5]; 50 μM compound, 1 h) [nmol/mg protein]	Spermidine intracellular content (ZR-75-1 cells [5]; 50 μM compound, 1 h) [nmol/mg protein]	DESC intracellular content (ZR-75-1 cells [5]; 50 μM compound, 6 h) [nmol/mg protein]	MESC intracellular content (ZR-75-1 cells [5]; 50 μM compound, 6 h) [nmol/mg protein]	Spermidine intracellular content (ZR-75-1 cells [5]; 50 μM compound, 6 h) [nmol/mg protein]	DESC intracellular content (ZR-75-1 cells [5]; 200 μM compound, 1 h) [nmol/mg protein]	MESC intracellular content (ZR-75-1 cells [5]; 200 μM compound, 1 h) [nmol/mg protein]	Spermidine intracellular content (ZR-75-1 cells [5]; 200 μM compound, 1 h) [nmol/mg protein]	DESC intracellular content (ZR-75-1 cells [5]; 200 μM compound, 6 h) [nmol/mg protein]	MESC intracellular content (ZR-75-1 cells [5]; 200 μM compound, 6 h) [nmol/mg protein]	Spermidine intracellular content (ZR-75-1 cells [5]; 200 μM compound, 6 h) [nmol/mg protein]	other results
NCCCNCCCC(NCCCN)C(=O)NCCSSCCN (stereo not shown) [DEASC, N-[2,2'-Dithio(Ethyl, 1'-Aminoethyl)]spermine-5-carboxamide]	completely prevented by the amine oxidase inhibitor	stable for months													Mode of inhibition of [3H]putrescine uptake (polyamine transporter [1]): mixed competitive/non-competitive; inhibition at 50 µM (ZR-75-1 cells [2]; Homo sapiens, ZR-75-1, 264 h, 50 μM, 11 days): 20%
NCCCNCCCC(NCCCN)C(=O)NCCSSCCNC(=O)C(CCCNCCCN)NCCCN (stereo not shown) [DESC, 2,2'-dithiobis(N-ethyl-spermine-5-carboxamide)]		stable for months	< 0.01	< 0.01	0.81 ± 0.14	< 0.01	< 0.01	0.73 ± 0.11	< 0.01	< 0.01	0.79 ± 0.11	0.12 ± 0.01	< 0.01	0.76 ± 0.11	Increase in affinity for the polyamine transporter on dimerization of MESC into DESC (polyamine transporter [4]; DESC relative to MESC): up to 20 fold; Ki against [14C]spermine transport, fold lower than that of DEASC (polyamine transporter [4]; ZR-75-1 cells, FIG. 2): about 5 fold; Ki against [14C]spermine transport, fold lower than that of MESC (polyamine transporter [4]; ZR-75-1 cells, FIG. 2): ~16 fold; Spermine intracellular content (ZR-75-1 cells [5]; 50 μM compound, 6 h): 8.60 ± 0.29 nmol/mg protein; Effect of CHX on internalization of the compound (ZR-75-1 cells [5]; 200 μM DESC + 200 μM CHX): did not enhance DESC internalization; DESC intracellular content (ZR-75-1 cells [5]; [11]): < 0.01 nmol/mg protein; MESC intracellular content (ZR-75-1 cells [5]; [11]): < 0.01 nmol/mg protein; Spermidine intracellular content (ZR-75-1 cells [5]; [11]): 0.76 ± 0.04 nmol/mg protein; MESC intracellular content (ZR-75-1 cells [5]; [12]): < 0.01 nmol/mg protein; Spermidine intracellular content (ZR-75-1 cells [5]; [12]): 0.70 ± 0.03 nmol/mg protein; Intracellular level relative to accumulation of substrates (spermidine, sym-norspermidine, spermine) under identical conditions (ZR-75-1 cells [5]; 200 μM, 6 h): about 1.5%; inhibition at 200 µM (ZR-75-1 cells [6]; 5 μM [3H]spermidine, 6 hours, no CHX, read-out: Decrease of net spermidine accumulation): 50%; activity at 200 µM (ZR-75-1 cells [6]; read-out: Cellular level of newly internalized spermidine relative to control conditions): 20%; Prevention of the reversal of DFMO-induced growth inhibition by spermidine (ZR-75-1 cells [7]; 50 μM, DESC:spermidine ratio up to 500): unable to prevent the reversal; degraded at 48 h, 50 µM [8]: 40%
NCCC[C@](N)(C(=O)O)C(F)F [DFMO, α-difluoromethylornithine]															inhibition at 1000 µM (ZR-75-1 cells [7]; Homo sapiens, ZR-75-1, 264 h, 1 mM, 11-day incubation): ~50%
NCCCNCCCC(NCCCN)C(=O)NCCS (stereo not shown) [MESC, N-(2-mercaptoethyl)spermine-5-carboxamide]	not blocked by aminoguanidine		< 0.01	< 0.01	0.95 ± 0.11	< 0.01	< 0.01	0.75 ± 0.11	< 0.01	0.020	1.15 ± 0.07	< 0.01	0.13	0.81 ± 0.15	inhibition at 200 µM (ZR-75-1 cells [2]; Homo sapiens, ZR-75-1, 264 h, 200 μM, 11 days, read-out: Decrease in cell growth): 35%; pKa [9]: ≈ 5.5
[N-]=[N+]=Nc1ccc(C(=O)NCCCCNC(=O)CSCCNC(=O)C(CCCNCCCN)NCCCN)c(O)c1 (stereo not shown) [MESC-ASIB]															Ki toward spermidine uptake compared with MESC (polyamine transporter [10]): did not signicantly (P>0.10) increase the Ki
